Reference: ChEMBL document CHEMBL4334544, “BRM Targeting Compounds for the Potential Treatment of Cancer” (ACS Med Chem Lett, 2020)

Assays:
[1] = target: T1, Protein cereblon/SWI/SNF-related matrix-associated actin-dependent regulator of chromatin subfamily A member 2 (Homo sapiens, UniProt P51531+Q96SW2); test: Protac activity at E3 ubiquitin ligase/BRM in human SW1573 cells assessed as E3 ubiquitin ligase-mediated BRM degradation incubated for 18 to 20 hrs by Western blot analysis; format: cell-based
[2] = target: T1, Protein cereblon/SWI/SNF-related matrix-associated actin-dependent regulator of chromatin subfamily A member 2; test: Protac activity at E3 ubiquitin ligase/BRM in human SW1573 cells assessed as E3 ubiquitin ligase-mediated BRM degradation at 0.3 to 10 uM incubated for 18 to 20 hrs by Western blot analysis relative to control; format: cell-based
[3] = target: T2, von Hippel-Lindau disease tumor suppressor/SWI/SNF-related matrix-associated actin-dependent regulator of chromatin subfamily A member 4 (Homo sapiens, UniProt P51532+P40337); test: Protac activity at E3 ubiquitin ligase/BRG1 (unknown origin) assessed as E3 ubiquitin ligase mediated BRG1 degradation
Target sequence in this assay (P51532 whole entry): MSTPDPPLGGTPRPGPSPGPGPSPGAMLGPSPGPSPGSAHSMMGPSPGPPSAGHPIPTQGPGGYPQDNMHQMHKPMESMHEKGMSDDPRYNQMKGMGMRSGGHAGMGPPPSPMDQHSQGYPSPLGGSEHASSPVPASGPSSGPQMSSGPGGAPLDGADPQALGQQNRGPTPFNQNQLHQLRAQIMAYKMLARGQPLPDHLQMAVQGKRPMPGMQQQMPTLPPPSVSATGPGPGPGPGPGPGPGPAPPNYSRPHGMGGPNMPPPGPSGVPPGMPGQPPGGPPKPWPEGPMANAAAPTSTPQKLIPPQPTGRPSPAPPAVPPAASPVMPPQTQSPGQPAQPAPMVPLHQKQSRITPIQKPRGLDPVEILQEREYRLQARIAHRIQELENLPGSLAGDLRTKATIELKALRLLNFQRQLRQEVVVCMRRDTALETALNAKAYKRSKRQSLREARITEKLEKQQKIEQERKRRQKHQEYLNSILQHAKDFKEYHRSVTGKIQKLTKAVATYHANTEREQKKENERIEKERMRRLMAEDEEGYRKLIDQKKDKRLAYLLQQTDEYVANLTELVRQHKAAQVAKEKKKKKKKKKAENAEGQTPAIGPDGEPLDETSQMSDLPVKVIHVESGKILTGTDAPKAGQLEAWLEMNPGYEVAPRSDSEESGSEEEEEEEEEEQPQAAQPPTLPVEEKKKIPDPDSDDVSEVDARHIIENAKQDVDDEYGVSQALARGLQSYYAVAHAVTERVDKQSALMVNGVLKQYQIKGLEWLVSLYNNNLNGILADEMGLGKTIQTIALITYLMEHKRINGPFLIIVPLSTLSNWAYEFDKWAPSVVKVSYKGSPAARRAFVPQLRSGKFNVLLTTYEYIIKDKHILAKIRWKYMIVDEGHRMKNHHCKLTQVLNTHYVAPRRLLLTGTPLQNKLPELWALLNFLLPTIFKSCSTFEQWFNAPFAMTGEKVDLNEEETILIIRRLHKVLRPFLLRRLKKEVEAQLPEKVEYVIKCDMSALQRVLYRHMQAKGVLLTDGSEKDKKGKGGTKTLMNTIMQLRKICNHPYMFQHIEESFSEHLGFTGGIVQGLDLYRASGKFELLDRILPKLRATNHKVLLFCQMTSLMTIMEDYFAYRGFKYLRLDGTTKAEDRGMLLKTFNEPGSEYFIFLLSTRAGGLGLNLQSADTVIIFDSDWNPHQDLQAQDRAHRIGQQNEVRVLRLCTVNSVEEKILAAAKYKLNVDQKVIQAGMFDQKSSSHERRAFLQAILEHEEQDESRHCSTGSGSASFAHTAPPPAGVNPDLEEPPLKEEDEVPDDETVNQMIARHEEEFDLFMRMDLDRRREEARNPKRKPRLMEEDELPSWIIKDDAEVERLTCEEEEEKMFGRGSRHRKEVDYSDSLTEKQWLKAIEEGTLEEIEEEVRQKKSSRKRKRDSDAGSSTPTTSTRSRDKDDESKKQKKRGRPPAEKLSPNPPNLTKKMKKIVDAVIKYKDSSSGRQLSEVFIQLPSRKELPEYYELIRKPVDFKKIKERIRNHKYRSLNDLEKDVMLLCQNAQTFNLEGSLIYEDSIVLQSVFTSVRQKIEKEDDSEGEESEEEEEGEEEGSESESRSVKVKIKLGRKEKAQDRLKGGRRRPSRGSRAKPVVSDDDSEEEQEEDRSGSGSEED
Target sequence in this assay (P40337 whole entry): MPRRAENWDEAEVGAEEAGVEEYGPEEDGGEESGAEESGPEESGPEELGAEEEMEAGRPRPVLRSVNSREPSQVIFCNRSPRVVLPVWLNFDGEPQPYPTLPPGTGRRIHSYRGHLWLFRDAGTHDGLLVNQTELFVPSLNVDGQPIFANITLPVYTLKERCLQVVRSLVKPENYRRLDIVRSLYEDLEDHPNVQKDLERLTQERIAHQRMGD

[4] = target: T2, von Hippel-Lindau disease tumor suppressor/SWI/SNF-related matrix-associated actin-dependent regulator of chromatin subfamily A member 4; test: Protac activity at E3 ubiquitin ligase/BRG1 (unknown origin) assessed as E3 ubiquitin ligase mediated BRG1 degradation at 0.3 to 10 uM relative to control
Target sequence in this assay (P40337 whole entry, looked up): as the sequence (P40337 whole entry) above
Target sequence in this assay (P51532 whole entry, looked up): as the sequence (P51532 whole entry) above

T1 sequence (P51531 whole entry): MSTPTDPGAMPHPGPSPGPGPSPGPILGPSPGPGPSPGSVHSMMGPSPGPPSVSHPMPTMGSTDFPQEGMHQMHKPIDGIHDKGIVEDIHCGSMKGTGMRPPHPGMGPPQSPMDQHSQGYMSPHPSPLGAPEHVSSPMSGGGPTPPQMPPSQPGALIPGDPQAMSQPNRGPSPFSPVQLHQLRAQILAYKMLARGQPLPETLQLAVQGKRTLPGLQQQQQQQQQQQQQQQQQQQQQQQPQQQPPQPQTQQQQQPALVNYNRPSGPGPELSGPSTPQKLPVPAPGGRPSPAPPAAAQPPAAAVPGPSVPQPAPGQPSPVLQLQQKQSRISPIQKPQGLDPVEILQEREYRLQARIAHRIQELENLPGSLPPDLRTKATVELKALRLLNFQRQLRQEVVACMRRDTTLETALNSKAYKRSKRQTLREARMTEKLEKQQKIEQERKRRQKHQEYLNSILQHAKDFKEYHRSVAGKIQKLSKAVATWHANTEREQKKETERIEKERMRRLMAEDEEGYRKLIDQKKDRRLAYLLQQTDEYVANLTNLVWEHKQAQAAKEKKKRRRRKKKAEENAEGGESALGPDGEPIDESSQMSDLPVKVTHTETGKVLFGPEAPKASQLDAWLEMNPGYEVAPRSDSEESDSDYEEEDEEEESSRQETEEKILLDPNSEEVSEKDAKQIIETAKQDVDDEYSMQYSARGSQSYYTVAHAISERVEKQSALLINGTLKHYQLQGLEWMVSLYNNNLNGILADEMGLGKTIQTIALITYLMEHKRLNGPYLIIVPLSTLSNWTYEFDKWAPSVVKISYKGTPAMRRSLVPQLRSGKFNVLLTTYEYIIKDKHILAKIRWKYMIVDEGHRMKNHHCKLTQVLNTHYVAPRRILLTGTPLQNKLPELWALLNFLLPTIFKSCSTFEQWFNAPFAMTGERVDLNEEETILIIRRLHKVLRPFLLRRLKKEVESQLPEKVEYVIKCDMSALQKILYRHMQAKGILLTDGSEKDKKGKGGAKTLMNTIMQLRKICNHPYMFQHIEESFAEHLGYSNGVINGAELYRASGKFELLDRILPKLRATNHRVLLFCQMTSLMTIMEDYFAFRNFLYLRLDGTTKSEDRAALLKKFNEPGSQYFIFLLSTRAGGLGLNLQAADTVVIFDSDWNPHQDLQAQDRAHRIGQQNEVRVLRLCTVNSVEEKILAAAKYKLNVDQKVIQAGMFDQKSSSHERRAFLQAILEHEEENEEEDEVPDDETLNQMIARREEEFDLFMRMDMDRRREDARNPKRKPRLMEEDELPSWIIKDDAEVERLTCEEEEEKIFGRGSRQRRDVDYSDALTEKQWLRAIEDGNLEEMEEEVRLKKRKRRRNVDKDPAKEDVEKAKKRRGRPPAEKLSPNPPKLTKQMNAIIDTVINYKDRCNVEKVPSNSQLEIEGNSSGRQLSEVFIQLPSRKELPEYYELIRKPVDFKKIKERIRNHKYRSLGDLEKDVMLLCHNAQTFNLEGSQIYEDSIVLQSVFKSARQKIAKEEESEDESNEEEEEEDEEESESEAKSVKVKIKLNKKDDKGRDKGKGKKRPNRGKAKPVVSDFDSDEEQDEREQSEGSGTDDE
T1 sequence (Q96SW2 whole entry): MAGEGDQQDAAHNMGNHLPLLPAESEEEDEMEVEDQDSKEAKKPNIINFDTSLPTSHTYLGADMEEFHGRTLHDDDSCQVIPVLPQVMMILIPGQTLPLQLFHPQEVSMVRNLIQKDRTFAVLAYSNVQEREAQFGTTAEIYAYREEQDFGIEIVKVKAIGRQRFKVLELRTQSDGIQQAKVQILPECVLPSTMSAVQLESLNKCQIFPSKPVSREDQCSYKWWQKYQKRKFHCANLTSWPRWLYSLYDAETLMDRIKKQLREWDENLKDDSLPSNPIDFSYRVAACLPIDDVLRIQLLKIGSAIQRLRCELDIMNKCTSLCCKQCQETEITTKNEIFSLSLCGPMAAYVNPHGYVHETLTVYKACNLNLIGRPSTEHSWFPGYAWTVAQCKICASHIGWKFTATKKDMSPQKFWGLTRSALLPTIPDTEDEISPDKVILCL

| Compound | DC50 [1] [nM] | %max [2] [%] | DC50 [3] [nM] | %max [4] [%] |
| --- | --- | --- | --- | --- |
| Cc1ncsc1-c1ccc([C@H](C)NC(=O)[C@@H]2C[C@@H](O)CN2C(=O)[C@@H](c2cc(OCCCCN3CCN(CCCCOc4cc(N5C6CCC5CN(c5cc(-c7ccccc7O)nnc5N)C6)ccn4)CC3)no2)C(C)C)cc1 | < 2.5 | > 75 | < 2.5 | > 75 |
| Cc1ncsc1-c1ccc([C@H](C)NC(=O)[C@@H]2C[C@@H](O)CN2C(=O)[C@@H](c2cc(OC3CN(CCN4CCC(O[C@H]5C[C@H](Oc6cc(N7C8CCC7CN(c7cc(-c9ccccc9O)nnc7N)C8)ccn6)C5)CC4)C3)no2)C(C)C)cc1 | < 2.5 | > 75 | 2.5 to 10 | > 75 |
| Cc1ncsc1-c1ccc([C@H](C)NC(=O)[C@@H]2C[C@@H](O)CN2C(=O)[C@@H](c2cc(OCCN3CCC(OC4CN(c5cc(N6C7CCC6CN(c6cc(-c8ccccc8O)nnc6N)C7)ccn5)C4)CC3)no2)C(C)C)cc1 | < 2.5 | > 75 | 2.5 to 10 | > 75 |
| Cc1ncsc1-c1ccc([C@H](C)NC(=O)[C@@H]2C[C@@H](O)CN2C(=O)[C@@H](c2cc(C#CCN3CCC(O[C@H]4C[C@H](Oc5cc(N6C7CCC6CN(c6cc(-c8ccccc8O)nnc6N)C7)ccn5)C4)CC3)no2)C(C)C)cc1 | < 2.5 | > 75 | 2.5 to 10 | > 75 |
| Cc1ncsc1-c1ccc([C@H](C)NC(=O)[C@@H]2C[C@@H](O)CN2C(=O)[C@@H](c2cc(N3CCC(O[C@H]4C[C@H](Oc5cc(N6C7CCC6CN(c6cc(-c8ccccc8O)nnc6N)C7)ccn5)C4)CC3)no2)C(C)C)cc1 | < 2.5 | > 75 | < 2.5 | > 75 |
| Cc1ncsc1-c1ccc([C@H](C)NC(=O)[C@@H]2C[C@@H](O)CN2C(=O)[C@@H](c2cc(OCCOCCOc3cc(N4C5CCC4CN(c4cc(-c6ccccc6O)nnc4N)C5)ccn3)no2)C(C)C)cc1 | < 2.5 | > 75 | < 2.5 | > 75 |
